# Measurements taken from publication PMC11357256, “Selectivity Screening and Structure–Cytotoxic Activity Observations of Selected Oleanolic Acid (OA)-Type Saponins from the Amaranthaceae Family on a Wiade Panel of Human Cancer Cell Lines” (Molecules, 2024).
# What was measured:
# Du-145 = test: MTT cell viability assay, Du-145 prostate carcinoma cells; type: cell-based; settings: Homo sapiens
# From the text: (§1) Cell lines used in the study were grouped as follows: skin panel (melanomas: HTB140, derived from metastatic site: lymph node, ATCC Hs 294 T; malignant A375, ATCC CRL-1619; stage I primary WM793, RRID:CVCL 8787; skin keratinocytes HaCaT); prostate panel (prostate carcinomas: Du145, derived from metastatic site: brain, ATCC HTB-81; grade IV PC3, derived from metastatic site: bone, ATCC CRL-1435, LNCaP, derived from the metastatic site: lymph node, ATCC CRL-1740; prostate epithelial, PNT2, ECACC 95012613); gastrointestinal panel (colorectal adenocarcinomas: Caco2, ATCC HTB-37, HT29, ATCC HTB-38, DLD-1, ATCC CCL-221, HCT116, ATCC CCL-247, and colon epithelial cells CCD 841 CoN, ATCC CRL-1790; hepatocellular carcinoma HepG2, ATCC HB-8065); thyroid panel (follicular thyroid carcinoma FTC133, ECACC 9406090, undifferentiated thyroid carcinoma 8505C, ECACC 94090184, papillary thyroid carcinoma TPC-1, SCC147, normal thyroid follicular epithelial Nthy-ori 3–1, ECACC 90011609); and breast panel (ER-positive breast adenocarcinoma MCF7, ATCC HTB-22; ER-negative breast adenocarcinoma MDA-MB-231, ATCC HTB-26; breast epithelial MCF10A, ATCC CRL-10317). Cells were grown under standard conditions (37 °C, 5% CO2, relative humidity), and culture media (DMEM/F12 for PNT2, WM 793, HT29, PC3, FTC133, 8505 C, MDA-MB-231, TPC-1; DMEM Low Glucose for DU145; DMEM High Glucose for HTB140, A375, HaCaT; MEM with NEAA for Caco2 and MCF7; RPMI1640 with sodium pyruvate for LNCaP; DMEM/F12 with 20 ng/mL epidermal growth factor (EGF), 10 μg/mL insulin, 0.5 μg/mL hydrocortisone, 100 ng/mL cholera toxin) for MCF10A) supplemented with 10% fetal bovine serum (FBS) or 5% donor horse serum for MCF10A, and 1% antibiotics solution (10,000 U penicillin and 10 mg streptomycin/mL) […], as previously described. All cell lines, culture media, and supplements were from Sigma-Aldrich (Germany).
# (§2) The cells were seeded in 96-well plates (1.5 × 10^4 cells/well). After 24 h, fresh medium was added, containing the tested compounds (0.5–100 μg/mL) and incubated for 24 or 48 h. Cell viability was determined by MTT assay, according to the manufacturer’s instructions, as described previously. Each experiment was performed in triplicate. The absorbance was measured at 570 nm using a Biotek Synergy microplate reader (BioTek Instruments Inc., Winooski, VT, USA). Cell viability was expressed as a percent of control (untreated cells). Doxorubicin was used as a reference drug.
# PC3 = test: MTT cell viability assay, PC3 prostate carcinoma cells; type: cell-based; settings: Homo sapiens, PC-3
# From the text: as §1, §2
# LNCaP = test: MTT cell viability assay, LNCaP prostate adenocarcinoma cells; type: cell-based; settings: Homo sapiens
# From the text: as §1, §2
# PNT2 = test: MTT cell viability assay, PNT2 normal prostate epithelial cells; type: cell-based; settings: Homo sapiens
# From the text: as §1, §2
# MDA-MB-231 = test: MTT cell viability assay, MDA-MB-231 breast adenocarcinoma cells; type: cell-based; settings: Homo sapiens
# From the text: as §1, §2
# MCF7 = test: MTT cell viability assay, MCF7 breast adenocarcinoma cells; type: cell-based; settings: Homo sapiens
# From the text: as §1, §2
# MCF10A = test: MTT cell viability assay, MCF10A normal breast epithelial cells; type: cell-based; settings: Homo sapiens, MCF-10A
# From the text: as §1, §2
# FTC133 = test: MTT cell viability assay, FTC133 follicular thyroid carcinoma cells; type: cell-based, human; settings: for IC50: Homo sapiens, FTC-133
# From the text: as §1, §2
# (§3) The selectivity index (SI) was calculated from the following formula:SI = IC50 of compound in a normal cell line/IC50 of compound in cancer cell line.IC50, half maximal inhibitory concentration, is a concentration required to kill 50% of the cells.
# 8505C = test: MTT cell viability assay, 8505C undifferentiated thyroid carcinoma cells; type: cell-based, human; settings: for IC50: Homo sapiens, 8505C; for Selectivity Index (SI): IC50 Nthy-ori 3-1 / IC50 8505C
# From the text: as §1, §2, §3
# TPC-1 = test: MTT cell viability assay, TPC-1 papillary thyroid carcinoma cells; type: cell-based, human; settings: for IC50: Homo sapiens, TPC1
# From the text: as §1, §2, §3
# Nthy-ori 3-1 = test: MTT cell viability assay, Nthy-ori 3-1 normal thyroid epithelial cells; type: cell-based; settings: Homo sapiens
# From the text: as §1, §2
# Caco-2 = test: MTT cell viability assay, Caco-2 colon cancer cells; type: cell-based; settings: Homo sapiens
# From the text: as §1, §2
# HT29 = test: MTT cell viability assay, HT29 colorectal adenocarcinoma cells; type: cell-based; settings: Homo sapiens, HT-29
# From the text: as §1, §2
# HepG2 = test: MTT cell viability assay, HepG2 hepatocellular carcinoma cells; type: cell-based; settings: Homo sapiens
# From the text: as §1, §2
# DLD-1 = test: MTT cell viability assay, DLD-1 colon cancer cells; type: cell-based; settings: Homo sapiens
# From the text: as §1, §2
# HCT116 = test: MTT cell viability assay, HCT116 colon cancer cells; type: cell-based; settings: Homo sapiens, HCT-116
# From the text: as §1, §2
# CCD 841 CoN = test: MTT cell viability assay, CCD 841 CoN normal colon epithelial cells; type: cell-based; settings: Homo sapiens
# From the text: as §1, §2
# HTB-140 = test: MTT cell viability assay, HTB-140 metastatic melanoma cells; type: cell-based, human; settings: for IC50: Homo sapiens
# From the text: as §1, §2, §3
# A375 = test: MTT cell viability assay, A375 malignant melanoma cells; type: cell-based, human; settings: for IC50: Homo sapiens, A-375
# From the text: as §1, §2, §3
# WM793 = test: MTT cell viability assay, WM793 primary melanoma cells; type: cell-based, human; settings: for IC50: Homo sapiens
# From the text: as §1, §2, §3
# HaCaT = test: MTT cell viability assay, HaCaT keratinocytes; type: cell-based; settings: Homo sapiens
# From the text: as §1, §2
structure (smiles),measurement,setting,value
"CC1(C)CC[C@]2(C(=O)O)CC[C@]3(C)C(=CC[C@@H]4[C@@]5(C)CC[C@H](O)C(C)(C)[C@@H]5CC[C@]43C)[C@@H]2C1 [OA, oleanolic acid]",IC50,"Du-145; DU-145, 24 h",23.4 µg/mL
same,IC50,"Du-145; DU-145, 48 h",12.2 µg/mL
same,IC50,"PC3; PC3, 24 h",> 100 µg/mL
same,IC50,"PC3; PC3, 48 h",> 100 µg/mL
same,IC50,LNCaP; 24 h,> 100 µg/mL
same,IC50,LNCaP; 48 h,> 100 µg/mL
same,IC50,PNT2; 24 h,> 100 µg/mL
same,IC50,PNT2; 48 h,> 100 µg/mL
same,IC50,"MDA-MB-231; MDA-MB-231, 24 h",> 100 µg/mL
same,IC50,"MDA-MB-231; MDA-MB-231, 48 h",38.5 µg/mL
same,IC50,"MCF7; MCF7, 24 h",> 100 µg/mL
same,IC50,"MCF7; MCF7, 48 h",67 µg/mL
same,IC50,MCF10A; 24 h,> 100 µg/mL
same,IC50,MCF10A; 48 h,> 100 µg/mL
same,IC50,"FTC133; FTC133, 24 h",13.5 µg/mL
same,IC50,"FTC133; FTC133, 48 h",4.9 µg/mL
same,Selectivity Index (SI),"FTC133; IC50 Nthy-ori 3-1 / IC50 FTC133, 24 h",6.99
same,Selectivity Index (SI),"FTC133; IC50 Nthy-ori 3-1 / IC50 FTC133, 48 h",14.6
same,IC50,8505C; 24 h,19.5 µg/mL
same,IC50,8505C; 48 h,11.3 µg/mL
same,Selectivity Index (SI),8505C; 24 h,4.8
same,Selectivity Index (SI),8505C; 48 h,6.4
same,IC50,"TPC-1; TPC-1, 24 h",36.6 µg/mL
same,IC50,"TPC-1; TPC-1, 48 h",30 µg/mL
same,Selectivity Index (SI),"TPC-1; IC50 Nthy-ori 3-1 / IC50 TPC-1, 24 h",2.6
same,Selectivity Index (SI),"TPC-1; IC50 Nthy-ori 3-1 / IC50 TPC-1, 48 h",2.4
same,IC50,Nthy-ori 3-1; 24 h,94.4 µg/mL
same,IC50,Nthy-ori 3-1; 48 h,71.6 µg/mL
same,IC50,"Caco-2; Caco-2, 24 h",13 µg/mL
same,IC50,"Caco-2; Caco-2, 48 h",8.3 µg/mL
same,IC50,"HT29; HT29, 24 h",> 100 µg/mL
same,IC50,"HT29; HT29, 48 h",> 100 µg/mL
same,IC50,"HepG2; HepG2, 24 h",51.5 µg/mL
same,IC50,"HepG2; HepG2, 48 h",10.7 µg/mL
same,IC50,"DLD-1; DLD-1, 24 h",48.7 µg/mL
same,IC50,"DLD-1; DLD-1, 48 h",24.5 µg/mL
same,IC50,"HCT116; HCT116, 24 h",25.6 µg/mL
same,IC50,"HCT116; HCT116, 48 h",18.5 µg/mL
same,IC50,CCD 841 CoN; 24 h,> 100 µg/mL
same,IC50,CCD 841 CoN; 48 h,> 100 µg/mL
same,IC50,"HTB-140; HTB-140, 24 h",51.4 µg/mL
same,IC50,"HTB-140; HTB-140, 48 h",29.5 µg/mL
same,Selectivity Index (SI),"HTB-140; IC50 HaCaT / IC50 HTB-140, 24 h",0.2
same,Selectivity Index (SI),"HTB-140; IC50 HaCaT / IC50 HTB-140, 48 h",0.2
same,IC50,"A375; A375, 24 h",2.2 µg/mL
same,IC50,"A375; A375, 48 h",0.9 µg/mL
same,Selectivity Index (SI),"A375; IC50 HaCaT / IC50 A375, 24 h",5.2
same,IC50,"WM793; WM793, 24 h",2.8 µg/mL
same,IC50,"WM793; WM793, 48 h",1.2 µg/mL
same,Selectivity Index (SI),"WM793; IC50 HaCaT / IC50 WM793, 24 h",4.0
same,Selectivity Index (SI),"WM793; IC50 HaCaT / IC50 WM793, 48 h",6.0
same,IC50,HaCaT; 24 h,11.2 µg/mL
same,IC50,HaCaT; 48 h,7.5 µg/mL
